Laboratory results reported in patent US12681009B2, “Molecular target in cancer” (The Regents of the University of California, priority 2021, dated 2026).

The compounds below were run against T1, Musashi RNA Binding Protein 2 (MSI2) (Homo sapiens, UniProt Q96DH6) (assay: MSI2:NUMB-Biotin5′ RNA binding assay HTRF, 10-point duplicate dose response curves of 512 compounds (FIG. 14)). Settings: 10-point duplicate curves, 100 μM to 5.6 nM, 3× dilution, MSI2 (His tag) 5 nM, NUMB-Biotin5′ RNA 1.25 nM, Streptavidin XL665 5 nM, His TB-Cryptate 0.6 nM, pH 7.3, read-out: MSI2 IC50 (normalized FRET ratio).
T1 construct: purchased LS Bio G2396
T1 sequence (Q96DH6 whole entry): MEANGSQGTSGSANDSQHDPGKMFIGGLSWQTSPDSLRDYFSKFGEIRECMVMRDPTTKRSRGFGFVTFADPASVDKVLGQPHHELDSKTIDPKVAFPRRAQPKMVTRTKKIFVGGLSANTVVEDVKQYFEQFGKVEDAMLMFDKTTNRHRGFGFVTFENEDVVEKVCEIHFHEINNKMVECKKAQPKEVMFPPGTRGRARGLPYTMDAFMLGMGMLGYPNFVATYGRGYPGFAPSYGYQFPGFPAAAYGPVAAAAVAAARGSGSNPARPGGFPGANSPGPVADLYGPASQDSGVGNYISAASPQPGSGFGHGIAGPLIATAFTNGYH
Text: In some embodiments, a MSI2 binding assay was developed where streptavidin labeled with XL665 or d2 was used as the acceptor, and Terbium (Tb) cryptate was used as the donor. For example, in the MSI2 binding assay, NUMB RNA was biotinylated at the 5′ end to create NUMB-Biotin 5′ RNA, which was coupled to the XL665 or d2-labeled streptavidin acceptor through streptavidin-biotin interaction. The MSI2 protein was engineered to contain a His tag, which was coupled to the Tb cryptate donor through an anti-His antibody attached to the Tb cryptate. Due to the MSI2-NUMB RNA interaction, the XL665 or d2 acceptor was brought into proximity of the Tb cryptate donor, thus generating a detectable FRET signal. Parameters of the binding assay, including the concentrations of MSI2 and NUMB-Biotin 5′ RNA, were optimized. Thus, the interaction of the MSI2 protein to NUMB-Biotin 5′ RNA could create a detectable FRET signal that can be used for subsequent binding assays and screening for modulators of MSI2-RNA interactions.
Reagents and protein/peptide: MSI2-LS Bio G2396 (provided in 20 mM Tris-HCL pH 8.0, 150 mM NaCl, 10% glycerol, 1 mM DTT); U1A-LS Bio G19194-10 (provided in 16 mM HEPES, pH 7.6, 400 mM NaCl, 20% glycerol); NUMB 5′Biotin—(IDT); NUMB 5′—(IDT); U1A RNA 5′ Biotin—(IDT); U1A RNA 5′—(IDT); HEPES pH 7.3 (RNase/DNase free)—(Fisher—BP299); Molecular grade water (RNase/DNase free)—(Invitrogen-10977-95); DTT (molecular grade—RNase/DNase free)—(Promega-V3151); Pluronic F-127—(Sigma Aldrich SKU #P2443); NaCl (RNase/DNase free)—(Sigma—S3014); 6His Terbium (TB) Cryptate—(CisBio—61HI2TLA); Streptavidin XL665 (CisBio—610SAXLA); AlphaPlate-1536 well flat bottom plate, Light gray (Perkin Elmer #6004350); and AlphaScreen Histidine Detection Kit (Perkin Elmer, Cat. No. 6760619C) containing AlphaScreen Nickel Chelate Acceptor Beads (5 mg/ml), and AlphaScreen Streptavidin Donor Beads (5 mg/ml).
(§1) FIG. 6 illustrates the FRET assay principle for MSI2 and U1A. The NUMB RNA probe for MSI2 was selected based on prior scientific publications and has the following sequence: 5′[…]-Biotin (SEQ ID NO: 1) (Oncotarget, 8(63): 106587-106597 (2017). The RNA probe for U1A was designed based on an interaction study between U1A and RNA done by NMR (Structure 4(5): 621-631 (1996)) and has the following sequence: 5′[…]-Biotin (SEQ ID NO: 2). The underlined sequence represents the part which interacts with the protein, the sequence of AYYGCAC should fit into the groove of U1A according to the NMR studies. The remaining sequence without underline is a spacer. The assay developed provides robust TR-FRET readout.
IC50 analysis of 512 compounds selected from the confirmation screen (MSI2:NUMB-Biotin5′) screen was performed. The 512 compounds were run in duplicate 10-point dose response curve with a high concentration of 100 μM and a low concentration of 5.6 nM. The total volume of the assay was 8 μl and all steps except for ECHO dispense were performed on Tempest disperser. 80 nL of compounds in DMSO was dispensed in 10 point titrations of 3× dilutions with the t concentration of 100 μM and the bottom concentration of 5.6 nM from 10 mM stock using ECHO acoustic dispenser-duplicate curves on the same assay plate. 2 μL of assay buffer was added, 2 μL of MSI2 (4× Conc.) final concentration of 5 nM was added, and incubated for 30 minutes. […]
For `O=c1cc(CN2CCn3c(nnc3-c3ccccc3)C2)[nH]c2ccnn12` [WXHTS0101810, 5-({3-phenyl-5H,6H, 7H,8H-[1,2,4]triazolo[4,3-a]pyrazin-7-yl}methyl)-4H,7H-pyrazolo[1,5-a]pyrimidin-7-one], the IC50 was 0.85 µM. With `Cc1ccc(C)n1-c1sccc1C(=O)N1CC(C(N)=O)Oc2ccccc21` (stereo not drawn) [WXHTS0047719, 4-[2-(2,5-dimethyl-1H-pyrrol-1-yl)thiophene-3-carbonyl]-3,4-dihydro-2H-1,4-benzoxazine-2-carboxamide] the IC50 was 0.71 µM. `Cc1ccc(C)n1-c1ccc(SCC(=O)O)cc1` [WXHTS0063086, 2-{[4-(2,5-dimethyl-1H-pyrrol-1-yl)phenyl]sulfanyl}acetic acid] gave an IC50 of 0.47 µM. Compound `Cc1cc(C)n2c(SCC(=O)c3cccc(N4CCCC4=O)c3)nnc2n1` [WXHTS0080223, 1-{3-[2-({5,7-dimethyl-[1,2,4]triazolo[4,3-a]pyrimidin-3-yl}sulfanyl)acetyl]phenyl}pyrrolidin-2-one] has an IC50 of 0.85 µM. `CC(=O)N1CCC(NC(=O)c2cc(C)c(C)s2)CC1` [WXHTS0092123, N-(1-acetylpiperidin-4-yl)-4,5-dimethylthiophene-2-carboxamide] was tested, and the IC50 was 0.92 µM.

These compounds were tested against T2, MSI2-RNA interaction (Homo sapiens, UniProt Q96DH6) (assay: MSI2 TR-FRET assay, primary screen and triplicate confirmation). Settings: identified by the method disclosed herein.
T2 construct: purchased LS Bio G2396
T2 sequence (Q96DH6 whole entry): as above
Type: binding
Protocol: In some embodiments, inhibitory compounds of MSI2-RNA interactions were identified using the methods disclosed herein. In a primary screening of small molecule compound libraries using the MSI2 binding TR-FRET assay, 194,914 compounds were screened at 15 μM final concentration for induced inhibition of MSI2-RNA interaction. Hit compounds were selected with a cut-off of at least 30% inhibition. Subsequently, after analysis of donor- and acceptor-channels, and removal of potential detection artefacts, 1,391 compounds were selected and confirmed by MSI2 and U1A TR-FRET assays in triplicates and at 15 μM concentration (Table 1).
as §1
FIG. 7 illustrates the high throughput screening workflow. […] The hit cut-off criteria are >30% inhibition. The hit triaging is based on analysis of donor- and acceptor-channels, removal of potential detection artefacts. The hit confirmation is based on triplicate confirmation runs (15 μM) in MSI2 and U1A TR-FRET assays. The compound selection for dose-response is a dose-response testing in MSI2 and U1A to filter for compounds that have the drug potential. The hit selection for hit to lead (HTL) is based on QC on dose responsive hits SAR tractability, and model building for hit expansion.
In the case of `Cc1ccc(C)n1-c1sccc1C(=O)N1CC(C(N)=O)Oc2ccccc21` (stereo not drawn) [4-[2-(2,5-dimethyl-1H-pyrrol-1-yl)thiophene-3-carbonyl]-3,4-dihydro-2H-1,4-benzoxazine-2-carboxamide], the “inhibitor of MSI2-RNA interaction identified by the method” value (shortened to “inhibitor”) is reported as “inhibitors of MSI2-RNA interaction”. With `O=c1cc(CN2CCn3c(nnc3-c3ccccc3)C2)[nH]c2ccnn12` [5-({3-phenyl-5H,6H, 7H,8H-[1,2,4]triazolo[4,3-a]pyrazin-7-yl}methyl)-4H,7H-pyrazolo[1,5-a]pyrimidin-7-one] the “inhibitor” value was “inhibitors of MSI2-RNA interaction”. In the case of `CC(=O)N1CCC(NC(=O)c2cc(C)c(C)s2)CC1` [N-(1-acetylpiperidin-4-yl)-4,5-dimethylthiophene-2-carboxamide], the “inhibitor” value is reported as “inhibitors of MSI2-RNA interaction”. With `Cc1ccc(C)n1-c1ccc(SCC(=O)O)cc1` [2-{[4-(2,5-dimethyl-1H-pyrrol-1-yl)phenyl]sulfanyl}acetic acid] the “inhibitor” value was “inhibitors of MSI2-RNA interaction”. In the case of `Cc1cc(C)n2c(SCC(=O)c3cccc(N4CCCC4=O)c3)nnc2n1` [1-{3-[2-({5,7-dimethyl-[1,2,4]triazolo[4,3-a]pyrimidin-3-yl}sulfanyl)acetyl]phenyl}pyrrolidin-2-one], the “inhibitor” value is reported as “inhibitors of MSI2-RNA interaction”.

These compounds were tested against T3, U1A protein and U1A target-Biotin5′ RNA (Homo sapiens, UniProt P09012) (assay: U1A:Target-CTRL RNA competition assay, HTRF (384 well plate)). Settings: competitor RNA titrated from 1000 nM, 2× dilution over 9 points; U1A 5 nM + U1A Target-Biotin5′ 1.25 nM.
T3 construct: purchased LS Bio G19194-10
T3 sequence (P09012 whole entry, species assumed): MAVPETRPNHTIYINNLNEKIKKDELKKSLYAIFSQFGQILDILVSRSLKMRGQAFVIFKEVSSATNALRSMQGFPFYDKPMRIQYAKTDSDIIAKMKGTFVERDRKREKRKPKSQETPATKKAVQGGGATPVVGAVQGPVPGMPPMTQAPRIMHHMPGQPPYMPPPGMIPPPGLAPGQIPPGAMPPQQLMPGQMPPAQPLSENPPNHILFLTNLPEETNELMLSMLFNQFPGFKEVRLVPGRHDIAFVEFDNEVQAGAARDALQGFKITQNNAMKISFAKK
Type: binding
Protocol: (§2) MSI2: Numb/U1A:Target RNA Competition assay-HTRF (384 well plate): CisBio HTRF protocol was followed in a total assay volume of 20 μl. 5 μL of NUMB-CTRL RNA/Target-CTRL (4× Conc.) titrated in 10 point in 2× dilution, 5 μL of MSI2 protein/U1A protein (4× Conc.) final concentration of 5 nM was added to each well, 5 μL of NUMB-Biotin5′/Target-Biotin5′ RNA (4× Conc.) final concentration of 1.25 nM and Streptavidin XL665 acceptor (4×) final concentration of 5 nM were added, and incubated for 60 minutes at room temperature. 5 μL of 4×His TB cryptate, final concentration of 0.6 nM was added and incubated at room temperature for 60 minutes and read on envision. The assay buffer contained 150 mM NaCl, 25 mM HEPES pH 7.3, 1 mM DTT, and 0.05% pluronic F-127.
(§3) NUMB RNA or U1A target RNA was titrated starting from 1000 nM in 2× dilution over 9 points against MSI2 5 nM+NUMB-Biotin5′ 1.25 nM. […] NUMB RNA or U1A target RNA was titrated starting from 1000 nM in 2× dilution over 9 points against U1A 5 nM+U1A Target-Biotin5′ 1.25 nM. […] X axis: Log of CTRL RNA (M); Y axis: (Streptavidin XL665/6His TB cryptate ratio)*1000.
(§4) NUMB RNA or U1A target RNA was titrated starting from 1000 nM in 2× dilution over 9 points against MSI2 5 nM+NUMB-Biotin5′ 1.25 nM. […] NUMB RNA or U1A target RNA was titrated starting from 1000 nM in 2× dilution over 9 points against U1A 5 nM+U1A Target-Biotin5′ 1.25 nM. […]
With “NUMB RNA: non-biotinylated NUMB RNA that competes with NUMB-Biotin 5′ RNA to bind the MSI2 protein (UAGGUAGUAGUUUUA; non-biotinylated RNA, further chemistry not given here)” the “displacement of the binding signal between U1A protein and U1A target-Biotin5′ RNA” value was “did not displace the binding signal”.

What follows are compounds tested against T4, MSI2 protein and NUMB-Biotin5′ RNA (Homo sapiens, UniProt Q96DH6) (assay: MSI2:NUMB-CTRL RNA competition assay, HTRF (384 well plate)). Settings: competitor RNA titrated from 1000 nM, 2× dilution over 9 points; MSI2 5 nM + NUMB-Biotin5′ 1.25 nM.
T4 construct: purchased LS Bio G2396
T4 sequence (Q96DH6 whole entry): as the sequence (Q96DH6 whole entry) above
Type: binding
Protocol: as §2, §3, §4
With “NUMB RNA: non-biotinylated NUMB RNA that competes with NUMB-Biotin 5′ RNA to bind the MSI2 protein (UAGGUAGUAGUUUUA; non-biotinylated RNA, further chemistry not given here)” the “displacement of the binding signal between MSI2 protein and NUMB-Biotin5′ RNA” value was “displaced the binding signal”.
